Source: patent US20040019060A1, “Sigma receptor ligands and their medical uses” (priority 2000, published 2004)
Counter-ions that a name gives are not always drawn.

Key:
[1] = tested on: MDA MB 435 human breast carcinoma xenografts; experiment: MDA MB 435 breast carcinoma xenograft growth and angiogenesis; assay type: in vivo, NCr athymic mice; details: for Tumour growth (increase in volume relative to start of treatment): FIG. 8a
Procedure: MDA MB 435 human breast carcinoma cells (as a model of hormone-insensitive disease) were grown in tissue culture to 70% confluence, harvested with trypsin:EDTA, washed, resuspended in DMEM and injected bilaterally into the inguinal fat pads of 6 week old female NCr athymic mice (orthotopic site) at 1.5×10^6 cells in 50 μl. The mice were housed in filter boxes in […] laminar flow cabinets and fed sterilized food and water. All procedures were carried out in class 1 laminar flow hoods using sterile equipment and reagents. On day 7, the tumours were measured with vernier calipers across two perpendicular diameters, and the mice were randomised into experimental groups and treated as follows: 1. […] 2. […] 3. Rimcazole 15 mg/kg/day (as above). […] The preparations were made up freshly each day, and the animals dosed intraperitoneally for 24 days. Animals were observed daily and weighed regularly to check that there were no adverse effects of treatment. […] Differences in growth were compared using the Mann-Whitney U test. At termination of the experiment the mice were killed and tumours excised and weighed. Blood, liver and tumour samples were snap frozen for analysis of drug levels by LCMS/MS. Tumour samples were also cryopreserved, and sections cut and stained with MECA-32 (Developmental Studies Hybridoma Unit; rat anti mouse endothelium) visualised with HRP conjugated goat-anti rat (Star 72, Serotec) to estimate blood vessel density.

[2] = tested on: Human mammary epithelial cells; experiment: MTS cell viability/proliferation assay, mammary epithelial cells; assay type: cell-based; details: 10 micromolar, up to 48 hours, FIG. 9
Source text: (Tissue in all cases was from healthy donors). […] Primary cell types included:
Human mammary epithelial cells (catalogue number CC-2551; stain positive for cytokeratins 14, 18 and 19).
Cell density was checked microscopically at time zero.

[3] = tested on: sponge angiogenesis; experiment: Mouse sponge angiogenesis model (triple radiotracer); assay type: in vivo, Balb/C mice; details: 30 mg/kg i.p. daily, all time points, FIG. 7a
Source text: In order to study neoangiogenesis in the absence of tumours, sterile polyether sponges were implanted into animals. This technique, developed in Cambridge, has been widely used to study angiogenesis. We have employed a triple radiotracer technique to study different aspects of the angiogenic process.
Balb/C mice were implanted bilaterally s.c. with sterile 7 mm diameter polyether sponges on days -5, -12 and -16 days prior to termination (5-6 mice per group). The mice were given Lugol's solution (KI) for 3 days prior to injection of radionuclides to prevent uptake of iodine in the thyroid. 24 hours before termination, the mice were injected i.v with […] [131-I] 5′-iodo-2′-deoxyuridine (IudR). One hour prior to termination the mice were injected with 2 XCi 2-deoxy-D-(1-[H3]glucose (DG) and 2 minutes prior to termination 2XCi [Tc-99m]-exametazine (HMPAO).
The IudR uptake reflects cell proliferation (primarily endothelial cells and also a small proportion of the inflammatory cells which provide the angiogenic growth factors); the DG measures cellular glucose metabolism, and the HMPAO gives a measure of blood flow. All can be taken as separate indices of the degree of vascularisation of the sponge implants. Mice were treated i.p. daily with Rimcazole (30 mg/kg) from the day of sponge implantation, or vehicle alone.

C[C@@H]1CN(CCCn2c3ccccc3c3ccccc32)C[C@H](C)N1 [Rimcazole, cis-9-[3,5-dimethyl-1-piperazinyl) propyl]carbazole dihydrochloride]
Weights of excised tumours ([1]; 15 mg/kg dose, FIG. 8b): did not achieve statistical significance | Tumour growth (increase in volume relative to start of treatment) ([1]; 15 mg/kg/day i.p. for 24 days, p=0.0228 Mann-Whitney U test): significant tumour growth retardation | Tumour growth (increase in volume relative to start of treatment) ([1]; 30 mg/kg/day i.p. for 24 days, p=0.0436 Mann-Whitney U test): significant tumour growth retardation | Weights of excised tumours ([1]; 30 mg/kg/day, p=0.0239, FIG. 8b): significantly less | Health and body weight gain of mice during therapy ([1]; 15 and 30 mg/kg/day for 24 days, data not shown): remained healthy throughout therapy and gained weight at the same rate as controls | Vascular density in excised tumours ([1]; both doses (15 and 30 mg/kg/day), FIG. 8c): significantly inhibited | Survival and proliferation (MTS) [2]: continued to proliferate vigorously | Cell proliferation (IUdR), cellular metabolism (DG) and blood flow (HMPAO) in sponge implants [3]: reduction
